Experiments:
galectin-4 = biological target: T1, galectin-4 (Homo sapiens, UniProt P56470); experiment: SPR (Biacore X100, galectin-4 immobilised on CM5), multi cycle; details: 25 °C, HBS-EP pH 7.4; LNT 31.3–500 μM; read-out: equilibrium binding constant
T1 construct: gene LGALS4; full-length, His-tagged (pQE-9), E. coli M15[pREP4], TALON purified; two CRDs (N-CRD and C-CRD), approx. 36 kDa; amine-coupled on CM5 chip for SPR
T1 sequence (P56470 1-323): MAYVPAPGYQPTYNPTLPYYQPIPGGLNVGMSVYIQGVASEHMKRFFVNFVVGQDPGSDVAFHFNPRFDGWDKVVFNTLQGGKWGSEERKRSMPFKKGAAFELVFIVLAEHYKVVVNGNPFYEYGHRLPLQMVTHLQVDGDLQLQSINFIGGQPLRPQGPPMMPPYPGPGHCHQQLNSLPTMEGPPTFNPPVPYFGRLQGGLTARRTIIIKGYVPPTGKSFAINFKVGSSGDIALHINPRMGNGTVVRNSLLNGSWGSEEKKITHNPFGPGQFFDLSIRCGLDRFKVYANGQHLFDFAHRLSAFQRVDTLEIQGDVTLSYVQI

MKN45 = experiment: cells; parameters: ATP-based cell viability assay, growth inhibition of MKN45 in FCS-free medium, 3 days; details: Homo sapiens, MKN-45, 72 h; read-out: Growth inhibition (IC50) MKN45
Experimental: For growth inhibition experiments, MKN45 or NUGC4 cells were grown in 96-well plates at 5 × 10^3/well on the previous day, and the cell supernatant was discarded and washed once with phosphate-buffered saline (PBS). Fucoidan or fucoidan analog solutions diluted in FCS-free Advanced RPMI 1640 medium were added to the cells and cultured for another 3 days. Cell proliferation was measured using the ATP-based cell viability assay. We first measured the inhibitory activities of all synthesized fucoidan analogs 1–14 to narrow down the candidate. […] Next, the inhibitory activity of fucoidan analogs on the proliferation of MKN45 cells was measured (Figure 3A). […] From the viewpoint of growth and binding inhibitory activities, we narrowed it down to 2, 3, 10, 12, and 14 for further investigation.

NUGC4 WT = experiment: cells; parameters: ATP-based cell viability assay, growth inhibition of wild-type NUGC4 in FCS-free medium, 3 days; details: Homo sapiens, NUGC-4, 72 h; read-out: Growth inhibition (IC50) NUGC4 WT
Experimental: For growth inhibition experiments, MKN45 or NUGC4 cells were grown in 96-well plates at 5 × 10^3/well on the previous day, and the cell supernatant was discarded and washed once with phosphate-buffered saline (PBS). Fucoidan or fucoidan analog solutions diluted in FCS-free Advanced RPMI 1640 medium were added to the cells and cultured for another 3 days. Cell proliferation was measured using the ATP-based cell viability assay. Fucoidan analogs inhibited the proliferative ability of NUGC4 cells, but minimal inhibitory activity was observed against KO cells (Figure 3B).

SMILES	Kd (galectin-4) [µM]	IC50 (MKN45) [µM]	IC50 (NUGC4 WT) [µM]
CC(=O)N[C@H]1[C@H](O[C@H]2[C@@H](O)[C@@H](CO)O[C@@H](O[C@H]3[C@H](O)[C@@H](O)C(O)O[C@@H]3CO)[C@@H]2O)O[C@H](CO)[C@@H](O)[C@@H]1O[C@@H]1O[C@H](CO)[C@H](O)[C@H](O)[C@H]1O (some centres unmarked) [LNT]	200	–	–
CCCCCCCCOC1O[C@@H](C)[C@@H](O)[C@@H](O[C@@H]2O[C@@H](C)[C@@H](O)[C@@H](O[C@@H]3O[C@@H](C)[C@@H](O)[C@@H](O[C@@H]4O[C@@H](C)[C@@H](O)[C@@H](OS(=O)(=O)O)[C@@H]4OS(=O)(=O)O)[C@@H]3OS(=O)(=O)O)[C@@H]2OS(=O)(=O)O)[C@@H]1OS(=O)(=O)O (some centres unmarked) [compound 3, fucoidan analog 3]	–	> 100	> 50
CCCCCCCCOC1OC(C)C(O)C(OC2OC(C)C(O)C(OC3OC(C)C(O)C(OC4OC(C)C(O)C(O)C4O)C3O)C2O)C1O (centres unmarked) [compound 4, 4]	–	> 100	–
CCCCCCCCO[C@H]1O[C@@H](C)[C@@H](O[C@@H]2O[C@@H](C)[C@@H](O[C@@H]3O[C@@H](C)[C@@H](O[C@@H]4O[C@@H](C)[C@@H](OS(=O)(=O)O)[C@@H](OS(=O)(=O)O)[C@@H]4OS(=O)(=O)O)[C@@H](OS(=O)(=O)O)[C@@H]3OS(=O)(=O)O)[C@@H](OS(=O)(=O)O)[C@@H]2OS(=O)(=O)O)[C@@H](OS(=O)(=O)O)[C@@H]1OS(=O)(=O)O [compound 10, fucoidan analog 10]	–	–	< 50
CCCCCCCCO[C@H]1O[C@@H](C)[C@@H](O[C@@H]2O[C@@H](C)[C@@H](O[C@@H]3O[C@@H](C)[C@@H](O[C@@H]4O[C@@H](C)[C@@H](O)[C@@H](O)[C@@H]4OS(=O)(=O)O)[C@@H](O)[C@@H]3OS(=O)(=O)O)[C@@H](O)[C@@H]2OS(=O)(=O)O)[C@@H](O)[C@@H]1OS(=O)(=O)O [compound 12, fucoidan analog 12]	–	> 100	> 50
CCCCCCCCOC1OC(C)C(OC2OC(C)C(OC3OC(C)C(OC4OC(C)C(O)C(O)C4O)C(O)C3O)C(O)C2O)C(O)C1O (centres unmarked) [compound 13, 13]	–	> 100	–

Source: publication PMC12470716, “Inhibitory Effect of Fucoidan Analogs on Highly Metastatic Gastric Cancer Cells via Galectin-4 Inhibition” (International Journal of Molecular Sciences, 2025)
